# Measured values reported in patent US10918713B2, “Epitopes from allergen proteins and methods and uses for immune response modulation” (LA JOLLA INSTITUTE FOR ALLERGY AND IMMUNOLOGY, priority 2012, dated 2021).
# Values joined by “and” are separate entries in the source; they are usually repeats but may differ in a detail not shown here. Equal values may be shown once.
# Key:
# [1] = tested on: PBMC from allergic donors; test: IL-5 ELISPOT with extract-stimulated short-term lines; format: cell-based, human; details: positive donor/peptide response
# Description: (§1) Spots were counted by computer-assisted image analysis (Zeiss, KS-ELISPOT reader, Munich, Germany).
# (§2) Each assay was performed in triplicate. The level of statistical significance was determined with a Student's t-test using the mean of triplicate values of the response against relevant pools or individual peptides versus the response against the DMSO control.
# [2] = tested on: PBMC from allergic donors; test: Dual ELISPOT, total IL-5 and IFN-γ response (SFC); format: cell-based, human; details: sum of IFNg and IL-5
# Description: as §1, §2
Compound,Response (SFC/10^6) IL-5 ([1]; each table line is one donor),Response (SFC/10^6) Total ([2]; each table line is one donor),Response (SFC/10^6) IL-5 ([1]; one donor per table line),Response (SFC/10^6) Total ([2]; one donor per table line)
3324.1609 (SFGIILLQLLTARPP),103 SFC/10^6,103 SFC/10^6,,
3324.1630 (TKLDDEIKSWLAFAA),87 SFC/10^6,87 SFC/10^6,,
3324.1632 (VIAELKAAGASTIQF),313 SFC/10^6,313 SFC/10^6,,
3324.1640 (VTAFGFDLVRGTKTL),73 SFC/10^6,73 SFC/10^6,,
CC[C@H](C)[C@H](NC(=O)[C@H](Cc1ccc(O)cc1)NC(=O)[C@H](CC(C)C)NC(=O)[C@@H]1CCCN1C(=O)[C@H](CCSC)NC(=O)[C@H](CC(N)=O)NC(=O)[C@H](CC(C)C)NC(=O)[C@H](CCCCN)NC(=O)[C@@H](NC(=O)[C@H](CC(N)=O)NC(=O)[C@H](CC(C)C)NC(=O)[C@@H](N)CC(N)=O)[C@@H](C)CC)C(=O)N[C@@H](C)C(=O)NCC(=O)N[C@@H](CC(N)=O)C(=O)O [3324.0523],,,1708 SFC/10^6,1708 SFC/10^6
CC[C@H](C)[C@H](NC(=O)[C@H](CC(N)=O)NC(=O)[C@H](CCSC)NC(=O)[C@@H](N)CC(N)=O)C(=O)N[C@@H](CCCCN)C(=O)N[C@@H](CC(C)C)C(=O)N[C@@H](CCCCN)C(=O)N[C@@H](CCSC)C(=O)N1CCC[C@H]1C(=O)N[C@@H](CC(C)C)C(=O)N[C@@H](Cc1ccc(O)cc1)C(=O)N[C@H](C(=O)N[C@@H](C)C(=O)NCC(=O)N[C@@H](Cc1c[nH]cn1)C(=O)O)C(C)C [3324.0624],,,3147 SFC/10^6,3147 SFC/10^6
CC[C@H](C)[C@H](NC(=O)[C@H](CO)NC(=O)[C@H](CC(C)C)NC(=O)[C@H](C)NC(=O)[C@H](CC(C)C)NC(=O)[C@H](CC(N)=O)NC(=O)[C@H](CCCCN)NC(=O)[C@H](CCC(=O)O)NC(=O)[C@H](CC(=O)O)NC(=O)[C@H](CO)NC(=O)CN)C(=O)N[C@@H](CCCCN)C(=O)N[C@@H](Cc1ccc(O)cc1)C(=O)N[C@@H](CC(N)=O)C(=O)N[C@@H](CCCCN)C(=O)O [3324.0657],,,1000 SFC/10^6 and 693 SFC/10^6,1000 SFC/10^6 and 693 SFC/10^6
CC[C@H](C)[C@H](NC(=O)[C@H](CO)NC(=O)[C@H](CC(C)C)NC(=O)[C@H](C)NC(=O)[C@H](CC(C)C)NC(=O)[C@@H](N)CC(N)=O)C(=O)N[C@@H](CCCCN)C(=O)N[C@@H](Cc1ccc(O)cc1)C(=O)N[C@@H](CC(N)=O)C(=O)N[C@@H](CCCCN)C(=O)N[C@@H](CCC(=O)O)C(=O)NCC(=O)N[C@@H](CC(=O)O)C(=O)N[C@@H](CO)C(=O)N[C@@H](CCSC)C(=O)O [3324.0658],,,917 SFC/10^6 and 853 SFC/10^6,917 SFC/10^6 and 853 SFC/10^6
CC[C@H](C)[C@H](NC(=O)[C@H](Cc1c[nH]cn1)NC(=O)[C@H](Cc1ccc(O)cc1)NC(=O)[C@H](C)NC(=O)[C@@H](NC(=O)[C@H](Cc1ccccc1)NC(=O)[C@H](C)NC(=O)[C@H](CC(=O)O)NC(=O)[C@@H](N)Cc1ccccc1)C(C)C)C(=O)NCC(=O)N[C@@H](C)C(=O)N[C@@H](CCCNC(=N)N)C(=O)N[C@H](C(=O)N[C@H](C(=O)N[C@@H](CO)C(=O)O)C(C)C)[C@@H](C)CC [3324.0971],,,187 SFC/10^6,187 SFC/10^6
CC[C@H](C)[C@H](NC(=O)[C@H](C)NC(=O)[C@@H](NC(=O)[C@H](Cc1ccccc1)NC(=O)[C@H](C)NC(=O)[C@H](CCCNC(=N)N)NC(=O)[C@H](CC(N)=O)NC(=O)CNC(=O)[C@H](CCCNC(=N)N)NC(=O)[C@@H](N)CO)[C@@H](C)CC)C(=O)N[C@@H](CC(N)=O)C(=O)N[C@@H](CC(C)C)C(=O)N[C@@H](CCC(N)=O)C(=O)N[C@@H](CCCCN)C(=O)N[C@@H](CC(N)=O)C(=O)O [3324.0974],,,940 SFC/10^6,940 SFC/10^6
CC[C@H](C)[C@H](NC(=O)[C@H](Cc1c[nH]cn1)NC(=O)[C@H](Cc1ccc(O)cc1)NC(=O)[C@H](C)NC(=O)[C@@H](NC(=O)[C@H](Cc1ccccc1)NC(=O)[C@H](C)NC(=O)[C@H](CC(=O)O)NC(=O)[C@H](Cc1ccccc1)NC(=O)[C@H](CCC(=O)O)NC(=O)[C@H](CC(=O)O)NC(=O)[C@H](Cc1c[nH]cn1)NC(=O)CNC(=O)[C@@H](NC(=O)[C@@H](N)Cc1ccc(O)cc1)C(C)C)C(C)C)C(=O)O [3324.0975],,,973 SFC/10^6,973 SFC/10^6
CC[C@H](C)[C@H](N)C(=O)N[C@@H](CCC(=O)O)C(=O)N[C@@H](Cc1ccccc1)C(=O)N[C@@H](CCCNC(=N)N)C(=O)N[C@@H](Cc1ccccc1)C(=O)N[C@@H](Cc1ccc(O)cc1)C(=O)N[C@@H](CCCCN)C(=O)N[C@@H](CCC(=O)O)C(=O)N[C@H](C(=O)N[C@H](C(=O)N[C@@H](CC(N)=O)C(=O)N[C@H](C(=O)N[C@@H](Cc1ccccc1)C(=O)N[C@@H](CCCNC(=N)N)C(=O)NCC(=O)O)C(C)C)[C@@H](C)O)[C@@H](C)CC [3324.0976],,,153 SFC/10^6 and 610 SFC/10^6,153 SFC/10^6 and 610 SFC/10^6
CSCC[C@H](NC(=O)[C@H](Cc1ccccc1)NC(=O)[C@H](C)N)C(=O)N[C@@H](CC(C)C)C(=O)N[C@@H](C)C(=O)N[C@@H](Cc1c[nH]c2ccccc12)C(=O)N[C@@H](CC(N)=O)C(=O)N[C@@H](Cc1ccc(O)cc1)C(=O)NCC(=O)N[C@H](C(=O)N1CCC[C@H]1C(=O)N[C@@H](CCCNC(=N)N)C(=O)N[C@H](C(=O)N[C@@H](CCSC)C(=O)N[C@@H](CO)C(=O)O)C(C)C)C(C)C [3324.0977],,,1413 SFC/10^6 and 157 SFC/10^6,1413 SFC/10^6 and 157 SFC/10^6
CC[C@H](C)[C@H](NC(=O)[C@H](C)NC(=O)[C@@H](NC(=O)[C@H](Cc1ccccc1)NC(=O)[C@H](C)NC(=O)[C@H](CCCNC(=N)N)NC(=O)[C@H](CC(N)=O)NC(=O)CNC(=O)[C@H](CCCNC(=N)N)NC(=O)[C@H](CO)NC(=O)[C@H](Cc1ccccc1)NC(=O)[C@H](C)NC(=O)[C@@H](NC(=O)[C@H](CCC(N)=O)NC(=O)[C@@H](N)Cc1ccc(O)cc1)[C@@H](C)CC)[C@@H](C)CC)C(=O)O [3324.0980],,,177 SFC/10^6 and 380 SFC/10^6,177 SFC/10^6 and 380 SFC/10^6
CC[C@H](C)[C@H](N)C(=O)N[C@H](C(=O)N[C@@H](CC(C)C)C(=O)N[C@@H](CC(N)=O)C(=O)N[C@@H](Cc1c[nH]cn1)C(=O)N[C@@H](CCSC)C(=O)N[C@H](C(=O)NCC(=O)N[C@@H](C)C(=O)N[C@@H](CCC(N)=O)C(=O)N[C@@H](CO)C(=O)NCC(=O)N[C@@H](CCCCN)C(=O)NCC(=O)N[C@H](C(=O)O)[C@@H](C)O)[C@@H](C)O)C(C)C [3324.0987],,,507 SFC/10^6,507 SFC/10^6
CC[C@H](C)[C@H](N)C(=O)N[C@@H](CCCCN)C(=O)N[C@@H](CO)C(=O)N[C@@H](CC(=O)O)C(=O)N[C@@H](CCCCN)C(=O)N1CCC[C@H]1C(=O)N[C@@H](CC(C)C)C(=O)N[C@@H](CCCCN)C(=O)NCC(=O)N1CCC[C@H]1C(=O)N[C@@H](Cc1ccccc1)C(=O)N[C@@H](CC(N)=O)C(=O)N[C@@H](Cc1ccccc1)C(=O)N[C@@H](CCCNC(=N)N)C(=O)N[C@@H](Cc1ccccc1)C(=O)O [3324.1140],317 SFC/10^6,317 SFC/10^6,,
CC[C@H](C)[C@H](NC(=O)[C@H](Cc1ccccc1)NC(=O)[C@H](CCCCN)NC(=O)[C@H](Cc1ccc(O)cc1)NC(=O)[C@H](CO)NC(=O)[C@@H](N)CC(=O)O)C(=O)N1CCC[C@H]1C(=O)N[C@H](C(=O)N[C@@H](CC(C)C)C(=O)N[C@H](C(=O)N[C@@H](C)C(=O)N[C@@H](C)C(=O)N[C@H](C(=O)N[C@@H](CCCCN)C(=O)N[C@@H](CCC(N)=O)C(=O)O)C(C)C)C(C)C)[C@@H](C)O [3324.1165],382 SFC/10^6 and 78 SFC/10^6,382 SFC/10^6 and 78 SFC/10^6,,
